Measured values: patent publication US10267796B2, “Screening methods of modulating adrenergic receptor gene expressions implicated in melanogenesis” (The Procter & Gamble Company, priority 2010, dated 2019)

Tests used:
B16-F1 cells = assay: B16 cell melanin synthesis assay; format: cell-based, murine; conditions: FIG. 4; for effect on melanin synthesis (% MS): increasing concentration (w/v %)
Text: Determining test agents suitable as ADRβ1 antagonists, ADRβ2 antagonists, or combinations thereof may utilize a melanin synthesis assay selected from the group consisting of a B16 cell assay or a skin model. The B16-F1 cells, which are murine melanoma cells obtained from American Tissue Culture Collection (ATCC), contain the synthetic machinery for melanin production and respond to some benchmark whitening/tanning agents. The following experiment depicts one exemplary method of determining the effect of test agents on melanin synthesis. In the experiment, 0.5 mL of B16-F1 cells are added to 29.5 ml of B16-F1 culture media to 2 separate T-150 flasks, and grown to near (˜80% ) confluency. The culture media B16-F1 comprises the following components as shown in Table 1 below: The cells from the T-150 flasks were trypsinized and counted with a hemacytometer. Then, cell vials (1×10^6 cell aliquots) were frozen in a mixture comprising 95% B16-F1 culture medium and 5% DMSO (Dimethyl sulfoxide) and placed in liquid Nitrogen. All cell culture reagents (except trypsin) were heated in a 37° C. water bath. On day zero, 29 mL of B16-F1 culture media was placed into a T-150 flask at 37° C. Then, a vial of the frozen cells was obtained, thawed in a 37° C. water bath, and placed in the T-150 flask. The flask was agitated to mix the cells with the media, and then the flask was incubated for 3 days at 37° C. in a humidified environment comprising 5% CO2. On day 3, the cells from the flask were trypsinized and the cell density was determined. At which point, the cells were split into a 96-well plate with 2,500 cells per well. At day 5, the cells were treated with the test agents. On day 7, the cells were assayed for melanin production and toxicity. […] As stated above, ADRβ1 and ADRβ2 stimulation result in elevated cAMP levels which drive tyrosinase production in known melanogenesis pathways.

human skin explants = assay: Pigmentation gene expression in human skin explants; format: cell-based; conditions: compared with Stem Cell Factor & Endothelin (Endo-SCF), FIG. 5
Text: FIG. 5 is a graphical illustration depicting the effect of dobutamine on human skin explants.
As stated above, ADRβ1 and ADRβ2 stimulation result in elevated cAMP levels which drive tyrosinase production in known melanogenesis pathways.

ADRβ1 receptors = ADRβ1 receptors (Homo sapiens, UniProt P08588); assay: ADRβ1 receptor antagonist screening (half maximal inhibitory concentration); format: binding
Chain of ADRβ1 receptors (P08588 whole entry): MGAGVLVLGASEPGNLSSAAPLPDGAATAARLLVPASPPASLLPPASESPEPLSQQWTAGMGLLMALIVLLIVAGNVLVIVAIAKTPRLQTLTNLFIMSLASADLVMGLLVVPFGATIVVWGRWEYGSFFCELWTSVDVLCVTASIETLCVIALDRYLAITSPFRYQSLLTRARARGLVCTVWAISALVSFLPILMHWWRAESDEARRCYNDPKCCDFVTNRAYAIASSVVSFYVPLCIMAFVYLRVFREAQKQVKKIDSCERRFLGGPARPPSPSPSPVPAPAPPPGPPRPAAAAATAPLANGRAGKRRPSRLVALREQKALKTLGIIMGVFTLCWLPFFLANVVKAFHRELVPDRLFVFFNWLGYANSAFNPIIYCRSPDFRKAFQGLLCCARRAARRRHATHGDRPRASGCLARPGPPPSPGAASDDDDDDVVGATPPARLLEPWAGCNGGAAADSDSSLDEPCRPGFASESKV
Text: Based on these inventive discoveries, a screening method for determining at least one test agent effective for modifying the appearance of pigmented skin is provided. The method comprises contacting a cell, a cell culture, or bulk cells with the test agent, wherein the cell, the cell culture, or the bulk cells comprise ADRβ1 receptors, and determining based on the binding interaction of the test agent with the ADRβ1 receptors whether the test agent is an effective ADRβ1 receptor antagonist suitable for modifying the appearance of pigmented skin, wherein a test agent is considered to be an effective ADRβ1 receptor antagonist when it defines a half maximal inhibitory concentration of less than about 1000 ppm.
The method further comprises determining whether test agents are effective for improving the appearance of pigmented skin if the test agent is an antagonist of the ADRβ1 receptors. In one embodiment, the test agent may be identified as an ADRβ1 receptor antagonist if the test agent defines a half maximal inhibitory concentration (IC50) of less than about 1000 ppm. In further embodiments, the ADRβ1 receptor antagonist defines a half maximal inhibitory concentration of less than about 100 ppm, or less than about 50 ppm. By utilizing this metric of maximal inhibitory concentration, it is possible to correlate the antagonistic activity of the ADRβ1 receptor antagonists with an ability of the ADRβ1 receptor antagonists to improve the appearance of hyper-pigmented spots in human skin. In further embodiments, when the ADRβ1 receptor antagonists bind to the ADRβ1 receptors, a luminescent reference signal may be generated, which may be measured by a luminometer, a fluorescence plate reader, or a fluorometer.
As shown below in Table 2, the present inventors have further recognized that modifying a test agent from a peptide to a palmitoylated peptide greatly improves its efficacy as an ADRβ1 inhibitor.

Compound	ADRβ1 IC 50 (ppm) (ADRβ1 receptors)	also measured
CC(CCc1ccc(O)cc1)NCCc1ccc(O)c(O)c1 (stereo not shown) [dobutamine]		effect on melanin synthesis (% MS) (B16-F1 cells): increases the melanin synthesis; pigmentation gene expression (human skin explants): induces pigmentation gene expression in human skin explants more than the paracrine factors
palGQPR [palmitoylated GQPR peptide]	0.23	
GHK	1100	
CC(C)NCC(O)c1ccc(O)c(O)c1 (stereo not shown) [isoprenaline]		melanin synthesis (% MS) (B16-F1 cells; as the concentration of isoprenaline increased): ~300%; effect on melanin synthesis (% MS) (B16-F1 cells): increases the melanin synthesis

The next lines start with results.

ADRβ1 IC 50 (ppm) (ADRβ1 receptors)	Compound	also measured
3.3	palGHK	
1200	GQPR	
45	AcetylGHK	
45	AcetylGQPR [acetyl-modified GQPR peptide]	
